# Literature values as cited in patent US20120129696A1, “METHOD FOR INCREASING THE LEVEL OF FREE AMINO ACIDS IN STORAGE TISSUES OF PERENNIAL PLANTS” (priority 2009, published 2012).
# Test system: wheat plants
smiles,measurement,setting,value
COC(=O)N(OC)c1ccccc1COc1ccn(-c2ccc(Cl)cc2)n1 [pyraclostrobin],"relative content of protein and C/N-ratios, control compared to treated plants",,neither the relative content of protein nor C/N-ratios were different
same,persistence of enhancement of nitrate reduction,after a single application at rates normally used for fungal control at the field site,3 nights
same,nitrite and ammonia in the leaves following application,rates normally used for fungal control at the field site,accumulated
